Reference: patent US20050106152A1, “Preventives/remedies for cancer” (priority 2001, published 2005)

Key:
SUV39H1 = test: quantitative PCR of SUV39H1 expression (RNA) after antisense oligonucleotide transfection; type: cell-based, human; settings: MDA-MB-231 cells, 7 hours after transfection, compared to control (reverse) oligonucleotide (100%)
Excerpt: First, the antisense (SEQ ID NO: 4) to the full-length sequence shown by SEQ ID NO: 3 was designed. Thereafter, phosphorothioated oligonucleotide was synthesized, purified on HPLC and used for the transfection test (Amersham Pharmacia Biotech). For control oligonucleotide, a reverse sequence (SEQ ID NO: 5) of the base sequence represented by SEQ ID NO: 4 was likewise phosphorothioated, purified on HPLC and used for the test (Amersham Pharmacia Biotech).
Breast cancer cell line MDA-MB-231 (In Vitro, 14 (11), 911-915, 1978, purchased from ATCC) was used as cells to be tested and on the day before transfecting the oligonucleotide, the cells were plated in 18×10^3 on a 24-well plate (manufactured by Falcon). To transfect the oligonucleotide, OligofectAMINE (manufactured by Invitrogen) was used to follow its protocol. In accordance with the protocol of RNeasy mini kit (manufactured by Qiagen), RNA was extracted 7 hours after the transfection and cDNA was prepared using TaqMan Reverse Transcription Reagents (manufactured by Applied Biosystems). Using 2 primers (SEQ ID NO: 6 and SEQ ID NO: 7) and probe (SEQ ID NO: 8; Amersham Pharmacia Biotech), quantitative PCR was carried out by ABI PRISM TM 7700 Sequence Detector (manufactured by Applied Biosystems). […]

[1] = test system: Breast cancer cell line MDA-MB-231; test: apoptosis by cell death detection ELISA after antisense oligonucleotide transfection; type: cell-based, human; settings: MDA-MB-231 cells, 3 days after transfection, compared to control (100%)

In the case of “antisense: phosphorothioated antisense oligonucleotide (SEQ ID NO: 4) to the full-length SUV39H1 sequence shown by SEQ ID NO: 3 (antisense ATGCGTCCCAGATGGCTGCG; all phosphorothioate, sugars by position and methylation of C not given here)”, the “expression (RNA) of SUV39H1” value (SUV39H1) is reported as 70% and the apoptosis [1] is reported as 213%.
